Calls of active or inactive are those of the source. Rule as the data show it, for most assays here: actives have a measured Kd and inactives only a lower limit.
Key:
[1] = target: Dual specificity tyrosine-phosphorylation-regulated kinase 1A (Homo sapiens, UniProt Q13627)
TGF-beta receptor type-1 = target: T1, TGF-beta receptor type-1 (Homo sapiens, UniProt P36897)
T1 sequence (P36897 whole entry): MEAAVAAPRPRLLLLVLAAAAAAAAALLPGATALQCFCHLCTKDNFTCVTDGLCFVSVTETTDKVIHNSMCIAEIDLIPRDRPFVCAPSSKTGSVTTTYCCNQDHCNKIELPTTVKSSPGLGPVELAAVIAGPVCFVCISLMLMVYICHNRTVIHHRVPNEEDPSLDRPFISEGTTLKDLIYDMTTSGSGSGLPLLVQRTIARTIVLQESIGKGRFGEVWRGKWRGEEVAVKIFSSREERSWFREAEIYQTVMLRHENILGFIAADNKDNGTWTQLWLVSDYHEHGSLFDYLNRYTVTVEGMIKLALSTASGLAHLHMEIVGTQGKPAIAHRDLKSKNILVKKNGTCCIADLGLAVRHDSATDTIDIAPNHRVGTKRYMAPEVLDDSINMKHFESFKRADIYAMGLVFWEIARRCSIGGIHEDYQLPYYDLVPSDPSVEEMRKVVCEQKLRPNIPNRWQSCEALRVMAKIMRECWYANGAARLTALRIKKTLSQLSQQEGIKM

[2] = target: T2, Mitogen-activated protein kinase kinase kinase kinase 2 (Homo sapiens, UniProt Q12851)
T2 sequence (Q12851 whole entry): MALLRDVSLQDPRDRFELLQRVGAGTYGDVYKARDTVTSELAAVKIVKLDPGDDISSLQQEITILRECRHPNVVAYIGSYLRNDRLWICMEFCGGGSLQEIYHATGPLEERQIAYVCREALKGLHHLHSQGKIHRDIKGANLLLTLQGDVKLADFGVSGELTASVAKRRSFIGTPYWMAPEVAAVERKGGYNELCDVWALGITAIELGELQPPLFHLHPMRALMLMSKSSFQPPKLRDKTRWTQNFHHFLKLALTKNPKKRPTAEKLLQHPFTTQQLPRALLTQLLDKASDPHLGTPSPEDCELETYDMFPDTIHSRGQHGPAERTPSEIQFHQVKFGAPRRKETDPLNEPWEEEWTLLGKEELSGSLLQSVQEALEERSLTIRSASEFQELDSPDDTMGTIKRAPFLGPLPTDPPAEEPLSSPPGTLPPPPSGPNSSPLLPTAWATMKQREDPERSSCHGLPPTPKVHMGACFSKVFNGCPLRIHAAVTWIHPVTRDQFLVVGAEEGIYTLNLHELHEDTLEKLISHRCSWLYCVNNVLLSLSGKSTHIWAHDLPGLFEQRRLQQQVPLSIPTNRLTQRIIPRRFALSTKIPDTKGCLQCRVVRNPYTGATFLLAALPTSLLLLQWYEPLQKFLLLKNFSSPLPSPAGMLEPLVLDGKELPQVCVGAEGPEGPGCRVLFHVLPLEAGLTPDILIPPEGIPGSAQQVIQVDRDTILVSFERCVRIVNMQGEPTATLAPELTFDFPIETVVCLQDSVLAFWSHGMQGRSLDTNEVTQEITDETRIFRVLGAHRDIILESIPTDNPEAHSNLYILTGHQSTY

[3] = target: 5'-AMP-activated protein kinase catalytic subunit alpha-1 (Homo sapiens, UniProt Q13131)
5'-AMP-activated protein kinase catalytic subunit alpha-1, sequence (Q13131 whole entry): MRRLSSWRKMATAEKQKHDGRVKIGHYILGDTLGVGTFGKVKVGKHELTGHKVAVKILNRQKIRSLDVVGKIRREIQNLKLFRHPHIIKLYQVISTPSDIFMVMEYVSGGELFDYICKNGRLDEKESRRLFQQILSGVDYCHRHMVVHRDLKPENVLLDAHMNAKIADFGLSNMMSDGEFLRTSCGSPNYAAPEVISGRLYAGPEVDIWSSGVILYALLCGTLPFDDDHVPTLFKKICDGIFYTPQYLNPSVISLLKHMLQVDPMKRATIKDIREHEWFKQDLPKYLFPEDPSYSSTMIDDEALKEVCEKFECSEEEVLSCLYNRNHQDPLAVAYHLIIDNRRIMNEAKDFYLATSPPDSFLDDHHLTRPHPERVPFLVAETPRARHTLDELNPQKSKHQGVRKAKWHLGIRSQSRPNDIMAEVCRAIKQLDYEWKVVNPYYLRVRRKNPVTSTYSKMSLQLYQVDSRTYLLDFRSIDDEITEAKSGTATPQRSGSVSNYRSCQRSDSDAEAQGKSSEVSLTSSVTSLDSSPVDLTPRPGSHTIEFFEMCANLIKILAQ

[4] = target: cAMP-dependent protein kinase catalytic subunit beta (Homo sapiens, UniProt P22694)
[5] = target: T3, Cysteine--tRNA ligase, cytoplasmic (Homo sapiens, UniProt P49589)
T3 sequence (P49589 whole entry): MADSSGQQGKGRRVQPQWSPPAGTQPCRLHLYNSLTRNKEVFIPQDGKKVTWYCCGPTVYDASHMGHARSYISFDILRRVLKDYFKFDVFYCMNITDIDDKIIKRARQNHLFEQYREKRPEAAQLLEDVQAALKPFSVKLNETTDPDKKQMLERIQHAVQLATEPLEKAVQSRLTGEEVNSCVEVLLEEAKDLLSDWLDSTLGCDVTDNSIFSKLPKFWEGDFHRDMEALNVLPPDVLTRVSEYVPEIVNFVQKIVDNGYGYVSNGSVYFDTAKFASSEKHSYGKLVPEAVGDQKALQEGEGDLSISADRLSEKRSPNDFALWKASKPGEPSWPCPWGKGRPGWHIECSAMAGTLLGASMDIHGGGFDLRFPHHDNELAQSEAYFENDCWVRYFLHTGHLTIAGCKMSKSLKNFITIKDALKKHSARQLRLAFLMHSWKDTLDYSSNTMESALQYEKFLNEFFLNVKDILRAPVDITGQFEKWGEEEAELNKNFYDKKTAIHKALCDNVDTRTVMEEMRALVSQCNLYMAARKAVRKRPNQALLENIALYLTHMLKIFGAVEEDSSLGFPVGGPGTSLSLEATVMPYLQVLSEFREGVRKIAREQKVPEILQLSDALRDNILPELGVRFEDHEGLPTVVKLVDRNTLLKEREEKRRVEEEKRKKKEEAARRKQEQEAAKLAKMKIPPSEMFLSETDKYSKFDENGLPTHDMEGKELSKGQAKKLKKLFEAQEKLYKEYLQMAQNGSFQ

[6] = target: T4, Long-chain-fatty-acid--CoA ligase 5 (Homo sapiens, UniProt Q9ULC5)
T4 sequence (Q9ULC5 whole entry): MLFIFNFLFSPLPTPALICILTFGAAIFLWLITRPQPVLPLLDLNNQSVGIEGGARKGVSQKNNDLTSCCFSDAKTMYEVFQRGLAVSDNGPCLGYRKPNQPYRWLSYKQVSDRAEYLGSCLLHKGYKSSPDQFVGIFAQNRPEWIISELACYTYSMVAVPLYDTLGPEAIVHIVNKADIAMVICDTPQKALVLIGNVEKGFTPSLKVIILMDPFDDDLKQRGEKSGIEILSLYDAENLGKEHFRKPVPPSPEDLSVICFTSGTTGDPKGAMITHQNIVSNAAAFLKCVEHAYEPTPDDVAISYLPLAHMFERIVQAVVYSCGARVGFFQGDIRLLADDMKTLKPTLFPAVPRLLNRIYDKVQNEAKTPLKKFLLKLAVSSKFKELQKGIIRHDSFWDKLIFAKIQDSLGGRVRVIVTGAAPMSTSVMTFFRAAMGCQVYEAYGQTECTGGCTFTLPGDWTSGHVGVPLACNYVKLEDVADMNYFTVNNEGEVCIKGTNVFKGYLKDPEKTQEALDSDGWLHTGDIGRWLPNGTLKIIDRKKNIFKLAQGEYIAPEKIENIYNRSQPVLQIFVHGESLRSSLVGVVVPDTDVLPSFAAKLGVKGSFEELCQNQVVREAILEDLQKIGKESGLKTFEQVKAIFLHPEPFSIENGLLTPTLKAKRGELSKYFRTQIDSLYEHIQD
Also: in the data inactive means no Kd found up to 30 µM.

Row | Compound | Kd [1] | Kd (TGF-beta receptor type-1) | Kd [2] | Kd [3] | Kd [4] | Kd [5] | Kd [6]
1 | COc1cc2nccc(Oc3ccc(NC(=O)C4(C(=O)Nc5ccc(F)cc5)CC4)cc3)c2cc1OC [CABOZANTINIB] | > 30 µM (inactive) | > 30 µM (inactive) | > 30 µM (inactive) | > 30 µM (inactive) | > 30 µM (inactive) | > 30 µM (inactive) | > 30 µM (inactive)
2 | O=C(Nc1ccc(OC(F)(F)F)cc1)c1sccc1NCc1ccnc2ccccc12 [OSI-930] | > 30 µM (inactive) | > 30 µM (inactive) | > 30 µM (inactive) | > 30 µM (inactive) | > 30 µM (inactive) | > 30 µM (inactive) | > 30 µM (inactive)
3 | COc1cccc(Nc2ncnn3ccc(CN4CC[C@@H](N)[C@H](O)C4)c23)c1 [BMS-690514] | 3.29 µM (active) | 1.23 µM (active) | > 30 µM (inactive) | > 30 µM (inactive) | 1.21 µM (active) |  | > 30 µM (inactive)
4 | COc1cc2ncnc3c2cc1OCCCCCN(C)Cc1ccc(Br)cc1N3 [JNJ-26483327] | > 30 µM (inactive) | > 30 µM (inactive) | > 30 µM (inactive) | > 30 µM (inactive) | > 30 µM (inactive) | > 30 µM (inactive) | > 30 µM (inactive)
5 | CNC(=O)c1cccc(-c2ccc3c(N4CCOC[C@@H]4C)nc(N4CCOC[C@@H]4C)nc3n2)c1 [VISTUSERTIB] | > 30 µM (inactive) | > 30 µM (inactive) | > 30 µM (inactive) | > 30 µM (inactive) | > 30 µM (inactive) | > 30 µM (inactive) | > 30 µM (inactive)
6 | C=CCn1c(=O)c2cnc(Nc3ccc(N4CCN(C)CC4)cc3)nc2n1-c1cccc(C(C)(C)O)n1 [ADAVOSERTIB] | > 30 µM (inactive) | > 30 µM (inactive) |  |  | > 30 µM (inactive) | > 30 µM (inactive) | > 30 µM (inactive)
7 | CNC(=O)c1cc(COc2nnc(Nc3ccc(Cl)cc3)c3ccoc23)ccn1 [TELATINIB] | > 30 µM (inactive) | > 30 µM (inactive) | > 30 µM (inactive) | > 30 µM (inactive) | > 30 µM (inactive) |  | > 30 µM (inactive)
8 | CC[C@@](C)(Nc1ccnc(-c2c[nH]c3ncccc23)n1)C(=O)NCC(F)(F)F [DECERNOTINIB] | > 30 µM (inactive) | > 30 µM (inactive) | > 30 µM (inactive) | > 30 µM (inactive) | > 30 µM (inactive) |  | > 30 µM (inactive)
9 | Cc1cc(-c2cc(OC(=O)c3ccccc3)ccc2Cl)cc2nnc(Nc3ccc(OCCN4CCCC4)cc3)nc12 [TG100-801] | > 30 µM (inactive) | > 30 µM (inactive) | > 30 µM (inactive) | > 30 µM (inactive) | > 30 µM (inactive) |  | > 30 µM (inactive)
10 | N#CCNC(=O)c1ccc(-c2ccnc(Nc3ccc(N4CCOCC4)cc3)n2)cc1 [MOMELOTINIB] | > 30 µM (inactive) | > 30 µM (inactive) | > 30 µM (inactive) | > 30 µM (inactive) | > 30 µM (inactive) | > 30 µM (inactive) | > 30 µM (inactive)
11 | CC(C)(O)CC(=O)NCCn1ccc2ncnc(Nc3ccc(Oc4cccc(C(F)(F)F)c4)c(Cl)c3)c21 [TAK-285] | > 30 µM (inactive) | > 30 µM (inactive) | > 30 µM (inactive) | > 30 µM (inactive) | > 30 µM (inactive) | > 30 µM (inactive) | > 30 µM (inactive)
12 | Cc1cc(C(=O)Nc2cc(Oc3ccc4nc(NC(=O)C5CC5)cn4n3)ccc2C)n(C)n1 [TAK-593] | > 30 µM (inactive) | > 30 µM (inactive) | > 30 µM (inactive) | > 30 µM (inactive) | > 30 µM (inactive) |  | > 30 µM (inactive)
13 | Cc1c(NC(=O)OC[C@@H]2COCCN2)cn2ncnc(Nc3ccc4c(cnn4Cc4cccc(F)c4)c3)c12 [AC-480] | > 30 µM (inactive) | > 30 µM (inactive) | > 30 µM (inactive) | > 30 µM (inactive) | > 30 µM (inactive) |  | > 30 µM (inactive)
14 | CCOc1ccn(-c2ccc(F)cc2)c(=O)c1C(=O)Nc1ccc(Oc2ccnc(N)c2Cl)c(F)c1 [BMS-777607] | > 30 µM (inactive) | > 30 µM (inactive) |  |  | > 30 µM (inactive) | > 30 µM (inactive) | > 30 µM (inactive)
15 | O[C@H]1CC[C@H](Nc2ncc3nc(Nc4c(F)cc(F)cc4F)n([C@H]4CCOC4)c3n2)CC1 [TANZISERTIB] | > 30 µM (inactive) | > 30 µM (inactive) | > 30 µM (inactive) | > 30 µM (inactive) | > 30 µM (inactive) |  | > 30 µM (inactive)
16 | O=S(=O)(c1cccc2cnccc12)N1CCCNCC1 [FASUDIL] | > 30 µM (inactive) | > 30 µM (inactive) |  |  |  | > 30 µM (inactive) | > 30 µM (inactive)
17 | COc1ccc(-c2ccc3ncc4c(c3c2)n(-c2ccc(N3CCNCC3)c(C(F)(F)F)c2)c(=O)n4C)cn1 [BGT-226 FREE BASE] | 0.922 µM (active) | > 30 µM (inactive) | > 30 µM (inactive) | > 30 µM (inactive) | > 30 µM (inactive) | > 30 µM (inactive) | 
18 | O=S(=O)(c1cccc2c(O)nccc12)N1CCCNCC1 [HYDROXYFASUDIL] | > 30 µM (inactive) |  | > 30 µM (inactive) | > 30 µM (inactive) | > 30 µM (inactive) | > 30 µM (inactive) | > 30 µM (inactive)
19 | CC(C)CC(=O)Nc1[nH]nc2c1CN(C(=O)C1CCN(C)CC1)C2(C)C [PHA-793887] | > 30 µM (inactive) | > 30 µM (inactive) | > 30 µM (inactive) | > 30 µM (inactive) | > 30 µM (inactive) | > 30 µM (inactive) | 
